Measured values as given in ChEMBL document CHEMBL1142357, “Synthesis and biological evaluation of 1-methyl-2-(3',4',5'-trimethoxybenzoyl)-3-aminoindoles as a new class of antimitotic agents and tubulin inhibitors” (J Med Chem, 2008).

Experiments:
L1210 = assay: Antiproliferative activity against mouse L1210 cells; format: functional, cell-based
FM3A = assay: Antiproliferative activity against mouse FM3A cells; format: functional, cell-based
[1] = Antiproliferative activity against human Molt4/C8 cells; format: functional, cell-based; conditions: MOLT-4
CCRF-CEM = assay: Antiproliferative activity against human CEM cells; format: functional, cell-based
[2] = Inhibition of bovine tubulin polymerization after 20 mins; design: species or system Bos taurus
K562 [3] = assay: Cell cycle arrest in human K562 cells by accumulation at G0/G1 phase at 200 nM after 24 hrs by flow cytometry; format: functional
K562 [4] = assay: Induction of apoptosis in human K562 cells after 48 hrs by fluorescence microscopy; format: functional, cell-based; conditions: K562, 48 h
K562 [5] = assay: Cell cycle arrest in human K562 cells by accumulation at G2/M phase at 200 nM after 24 hrs by flow cytometry; format: functional
K562 [6] = assay: Cell cycle arrest in human K562 cells by accumulation at A phase at 200 nM after 24 hrs by flow cytometry; format: functional
Bos taurus = species: Bos taurus; assay: Displacement of [3H]colchicine from bovine tubulin at 5 uM
K562 [7] = assay: Cell cycle arrest in human K562 cells by accumulation at S phase at 200 nM after 24 hrs by flow cytometry; format: functional
K562 [8] = assay: Cell cycle arrest in human K562 cells by accumulation at S phase at 3 uM after 24 hrs by flow cytometry; format: functional
K562 [9] = assay: Cell cycle arrest in human K562 cells by accumulation at G0/G1 phase at 3 uM after 24 hrs by flow cytometry; format: functional
K562 [10] = assay: Cell cycle arrest in human K562 cells by accumulation at sub G0-G1 phase at 3 uM after 24 hrs by flow cytometry; format: functional
K562 [11] = assay: Cell cycle arrest in human K562 cells by accumulation at G2/M phase at 3 uM after 24 hrs by flow cytometry; format: functional
K562 [12] = assay: Cell cycle arrest in human K562 cells by accumulation at S phase at 30 nM after 24 hrs by flow cytometry; format: functional
K562 [13] = assay: Cell cycle arrest in human K562 cells by accumulation at A phase at 30 nM after 24 hrs by flow cytometry; format: functional
K562 [14] = assay: Cell cycle arrest in human K562 cells by accumulation at G0/G1 phase at 30 nM after 24 hrs by flow cytometry; format: functional
K562 [15] = assay: Induction of apoptosis in human K562 cells at 60 nM after 48 hrs by fluorescence microscopy; format: functional
K562 [16] = assay: Cell cycle arrest in human K562 cells by accumulation at G2/M phase at 30 nM after 24 hrs by flow cytometry; format: functional

Molecule `COc1cc(C(=O)c2[nH]c3c(OC)cccc3c2N)cc(OC)c1OC` has an IC50 (L1210) of over 10 µM, an IC50 (FM3A) of over 10 µM and an IC50 [1] of 0.64 µM. For the same molecule, the IC50 (CCRF-CEM) was 0.63 µM.
In the case of `COc1cc(C(=O)c2[nH]c3cc(C)ccc3c2N)cc(OC)c1OC`, the IC50 (L1210) is reported as 3.5 µM, the IC50 (FM3A) is reported as over 10 µM and the IC50 [1] is reported as 1.4 µM. For the same molecule, the IC50 (CCRF-CEM) was 2.6 µM.
In the case of `CCn1c(C(=O)c2cc(OC)c(OC)c(OC)c2)c(N)c2ccccc21`, the IC50 (L1210) is reported as over 10 µM, the IC50 (FM3A) is reported as over 10 µM and the IC50 [1] is reported as over 10 µM. For the same molecule, the IC50 (CCRF-CEM) was over 10 µM.
`COc1cc(C(=O)c2c(N)c3c(OC)cccc3n2C)cc(OC)c1OC` showed an IC50 (L1210) of over 10 µM, an IC50 (FM3A) of over 10 µM and an IC50 [1] of over 10 µM. It also gave an IC50 (CCRF-CEM) of over 10 µM.
With `COc1ccc2c(c1)c(N)c(C(=O)c1cc(OC)c(OC)c(OC)c1)n2C` the IC50 [2] was 15 µM, the IC50 (L1210) was 4.2 µM and the IC50 (FM3A) was 5.2 µM. It also gave an IC50 [1] of 2.1 µM and an IC50 (CCRF-CEM) of 3.9 µM.
For `COc1cc(C(=O)c2c(N)c3cc(C)ccc3n2C)cc(OC)c1OC`, the IC50 [2] was 10 µM, the IC50 (L1210) was 1.9 µM and the IC50 (FM3A) was 1.6 µM. It also gave an IC50 [1] of 1.7 µM and an IC50 (CCRF-CEM) of 1.7 µM.
In the case of `COc1cc(C(=O)c2c(N)c3cccc(C)c3n2C)cc(OC)c1OC`, the IC50 [2] is reported as 8.4 µM, the IC50 (L1210) is reported as 1.8 µM and the IC50 (FM3A) is reported as 1.4 µM. For the same molecule, the IC50 [1] was 0.27 µM and the IC50 (CCRF-CEM) was 1.2 µM.
Molecule `COc1ccc(/C=C\c2cc(OC)c(OC)c(OC)c2)cc1O` [COMBRETASTATIN A4] has an IC50 [1] of 0.0016 µM.
In the case of `COc1cc(C(=O)c2c(N)c3ccc(C)cc3n2C)cc(OC)c1OC`, the IC50 [2] is reported as 6.4 µM, the IC50 (L1210) is reported as 1.9 µM and the IC50 (FM3A) is reported as 1.5 µM. For the same molecule, the IC50 [1] was 0.11 µM and the IC50 (CCRF-CEM) was 0.4 µM.
For `COc1ccc2[nH]c(C(=O)c3cc(OC)c(OC)c(OC)c3)c(N)c2c1`, the IC50 (L1210) was 9.7 µM, the IC50 (FM3A) was 9.9 µM and the IC50 [1] was 6.9 µM. It also gave an IC50 (CCRF-CEM) of 8.6 µM.
With `COc1cc(C(=O)c2c(N)c3ccc(Cl)cc3n2C)cc(OC)c1OC` the IC50 [2] was 7.1 µM, the IC50 (L1210) was 1.1 µM and the IC50 (FM3A) was 0.97 µM. The IC50 [1] was 0.48 µM and the IC50 (CCRF-CEM) was 1 µM.
In the case of `COc1cc(C(=O)c2[nH]c3cc(Cl)ccc3c2N)cc(OC)c1OC`, the IC50 (L1210) is reported as over 10 µM, the IC50 (FM3A) is reported as over 10 µM and the IC50 [1] is reported as 9.2 µM. For the same molecule, the IC50 (CCRF-CEM) was over 10 µM.
With `COc1cc(C(=O)c2[nH]c3cccc(C)c3c2N)cc(OC)c1OC` the IC50 (L1210) was over 10 µM, the IC50 (FM3A) was over 10 µM and the IC50 [1] was over 10 µM. The IC50 (CCRF-CEM) was over 10 µM.
`COc1cc(C(=O)c2[nH]c3c(C)cccc3c2N)cc(OC)c1OC` showed an IC50 (L1210) of over 10 µM, an IC50 (FM3A) of over 10 µM and an IC50 [1] of over 10 µM. It also gave an IC50 (CCRF-CEM) of over 10 µM.
In the case of `COc1cc2[nH]c(C(=O)c3cc(OC)c(OC)c(OC)c3)c(N)c2cc1OC`, the IC50 (L1210) is reported as over 10 µM, the IC50 (FM3A) is reported as over 10 µM and the IC50 [1] is reported as 8.6 µM. It also gave an IC50 (CCRF-CEM) of 9.5 µM.
Work on `COc1cc(C(=O)c2[nH]c3cccc(OC)c3c2N)cc(OC)c1OC` yielded an IC50 (L1210) of over 10 µM, an IC50 (FM3A) of over 10 µM and an IC50 [1] of over 10 µM. For the same molecule, the IC50 (CCRF-CEM) was over 10 µM.
Work on `COc1cc(C(=O)c2c(N)c3c(C)cccc3n2C)cc(OC)c1OC` yielded an IC50 (L1210) of over 10 µM, an IC50 (FM3A) of over 10 µM and an IC50 [1] of over 10 µM. The IC50 (CCRF-CEM) was over 10 µM.
For `COc1ccc2c(N)c(C(=O)c3cc(OC)c(OC)c(OC)c3)n(C)c2c1`, the Activity (K562 [3]) was 15%, the AC50 (K562 [4]) was 0.15 µM and the Activity (K562 [5]) was 52%. For the same molecule, the Activity (K562 [6]) was 23%, the IC50 [2] was 4.6 µM and the inhibition (Bos taurus) was 38%. It also gave an IC50 (L1210) of 0.069 µM, an IC50 (FM3A) of 0.097 µM and an IC50 [1] of 0.057 µM. For the same molecule, the IC50 (CCRF-CEM) was 0.071 µM and the Activity (K562 [7]) was 33%.
With `COc1cc(C(=O)c2sc3c(OC)cccc3c2N)cc(OC)c1OC` the IC50 [2] was 2.1 µM, the inhibition (Bos taurus) was 39% and the IC50 (L1210) was 0.033 µM. For the same molecule, the IC50 (FM3A) was 0.027 µM, the IC50 [1] was 0.0085 µM and the IC50 (CCRF-CEM) was 0.0089 µM.
Work on `COc1cc2c(N)c(C(=O)c3cc(OC)c(OC)c(OC)c3)n(C)c2cc1OC` yielded an IC50 [2] of 18 µM, an IC50 (L1210) of 5.4 µM and an IC50 (FM3A) of 5 µM. For the same molecule, the IC50 [1] was 5 µM and the IC50 (CCRF-CEM) was 5 µM.
Work on `COc1cc(C(=O)c2c(N)c3ccccc3n2C)cc(OC)c1OC` yielded an IC50 (L1210) of 8.1 µM, an IC50 (FM3A) of over 10 µM and an IC50 [1] of 2.1 µM. For the same molecule, the IC50 (CCRF-CEM) was 6.8 µM.
`COc1ccc2c(N)c(C(=O)c3cc(OC)c(OC)c(OC)c3)[nH]c2c1` showed an AC50 (K562 [4]) of 3 µM, an Activity (K562 [8]) of 35% and an IC50 [2] of over 40 µM. It also gave an IC50 (L1210) of 0.97 µM, an IC50 (FM3A) of 1.6 µM and an Activity (K562 [9]) of 15%. The Activity (K562 [10]) was 25%, the IC50 [1] was 0.63 µM and the IC50 (CCRF-CEM) was 0.32 µM. It also gave an Activity (K562 [11]) of 50%.
With `CCn1c(C(=O)c2cc(OC)c(OC)c(OC)c2)c(N)c2ccc(OC)cc21` the IC50 (L1210) was over 10 µM, the IC50 (FM3A) was over 10 µM and the IC50 [1] was over 10 µM. The IC50 (CCRF-CEM) was over 10 µM.
In the case of `COc1cc(C(=O)c2[nH]c3ccc(C)cc3c2N)cc(OC)c1OC`, the IC50 (L1210) is reported as over 10 µM, the IC50 (FM3A) is reported as over 10 µM and the IC50 [1] is reported as over 10 µM. The IC50 (CCRF-CEM) was over 10 µM.
Molecule `COc1ccc2c(C(=O)c3cc(OC)c(OC)c(OC)c3)c[nH]c2c1` has an IC50 [2] of 2.9 µM, an inhibition (Bos taurus) of 84% and an IC50 (L1210) of 0.0035 µM. It also gave an IC50 (FM3A) of 0.0037 µM, an IC50 [1] of 0.0034 µM and an IC50 (CCRF-CEM) of 0.0036 µM.
`COc1cc(C(=O)c2[nH]c3ccccc3c2N)cc(OC)c1OC` showed an IC50 (L1210) of over 10 µM, an IC50 (FM3A) of over 10 µM and an IC50 [1] of over 10 µM. It also gave an IC50 (CCRF-CEM) of over 10 µM.
Work on `COc1cc(C(=O)c2c(N)c3cccc(OC)c3n2C)cc(OC)c1OC` yielded an AC50 (K562 [4]) of 0.03 µM, an Activity (K562 [12]) of 28% and an Activity (K562 [13]) of 24%. The IC50 [2] was 1.4 µM, the inhibition (Bos taurus) was 76% and the IC50 (L1210) was 0.015 µM. It also gave an IC50 (FM3A) of 0.015 µM, an IC50 [1] of 0.0038 µM and an IC50 (CCRF-CEM) of 0.0088 µM. For the same molecule, the Activity (K562 [14]) was 27%, the Activity (K562 [15]) was 100% and the Activity (K562 [16]) was 45%.
For `CCn1c(C(=O)c2cc(OC)c(OC)c(OC)c2)c(N)c2cccc(OC)c21`, the IC50 (L1210) was over 10 µM, the IC50 (FM3A) was over 10 µM and the IC50 [1] was 9.1 µM. For the same molecule, the IC50 (CCRF-CEM) was over 10 µM.
In the case of `COc1cc(C(=O)c2[nH]c3ccc(Cl)cc3c2N)cc(OC)c1OC`, the IC50 (L1210) is reported as over 10 µM, the IC50 (FM3A) is reported as over 10 µM and the IC50 [1] is reported as over 10 µM. For the same molecule, the IC50 (CCRF-CEM) was over 10 µM.
